Results published in ChEMBL document CHEMBL4342459, “The Race to Bash NASH: Emerging Targets and Drug Development in a Complex Liver Disease” (J Med Chem, 2020).

How the values were obtained:
[1] = molecular target: T1, Diacylglycerol O-acyltransferase 2 (Homo sapiens, UniProt Q96PD7); assay: Inhibition of recombinant FLAG-tagged human DGAT2 expressed in SF9 cells after 1 hr by TopCount assay
T1 sequence (Q96PD7 whole entry): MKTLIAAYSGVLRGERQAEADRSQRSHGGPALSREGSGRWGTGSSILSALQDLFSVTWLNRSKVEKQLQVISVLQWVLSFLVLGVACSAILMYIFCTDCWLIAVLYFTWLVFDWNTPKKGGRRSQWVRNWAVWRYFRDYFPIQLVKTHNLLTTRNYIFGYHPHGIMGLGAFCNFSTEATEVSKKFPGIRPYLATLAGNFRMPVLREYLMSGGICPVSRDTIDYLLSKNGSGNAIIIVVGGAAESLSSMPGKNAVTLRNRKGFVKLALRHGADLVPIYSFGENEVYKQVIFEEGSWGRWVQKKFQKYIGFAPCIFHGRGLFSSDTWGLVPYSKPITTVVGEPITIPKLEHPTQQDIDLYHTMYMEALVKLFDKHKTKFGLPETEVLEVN

[2] = molecular target: T2, Diacylglycerol O-acyltransferase 1 (Homo sapiens, UniProt O75907); assay: Inhibition of recombinant FLAG-tagged human DGAT1 expressed in SF9 cells after 1 hr by TopCount assay
T2 sequence (O75907 whole entry): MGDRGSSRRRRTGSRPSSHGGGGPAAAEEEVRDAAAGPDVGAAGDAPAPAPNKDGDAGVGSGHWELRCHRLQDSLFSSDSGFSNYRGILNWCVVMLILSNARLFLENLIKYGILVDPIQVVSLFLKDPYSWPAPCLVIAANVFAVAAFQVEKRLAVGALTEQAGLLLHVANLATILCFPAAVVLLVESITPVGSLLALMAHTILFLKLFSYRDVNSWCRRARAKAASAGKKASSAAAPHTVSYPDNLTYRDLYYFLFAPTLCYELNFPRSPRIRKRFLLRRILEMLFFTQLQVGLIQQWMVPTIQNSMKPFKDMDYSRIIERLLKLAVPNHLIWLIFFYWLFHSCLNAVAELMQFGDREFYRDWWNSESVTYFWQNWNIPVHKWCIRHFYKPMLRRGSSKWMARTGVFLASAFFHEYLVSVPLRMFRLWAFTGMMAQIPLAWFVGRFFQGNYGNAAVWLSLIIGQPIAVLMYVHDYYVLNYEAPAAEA

[3] = Half life in rat; format: ADME; conditions: in vivo
[4] = Oral bioavailability in rat; format: ADME, organism-based; conditions: in vivo

In the case of `Cc1nc(C)c(-c2ccc(C3CCC(CC(=O)O)CC3)cc2)nc1C(N)=O` (centres undefined) [AZD-7687], the IC50 [1] is reported as 0.08 µM and the IC50 [2] is reported as > 300 µM.
A half-life [3] of 3.5 h and a bioavailability [4] of 10% were found for `CC(C)c1onc(-c2c(Cl)cccc2Cl)c1COc1ccc(/C=C/c2cccc(C(=O)O)c2)c(Cl)c1` in this work.
